Laboratory results published in publication PMC8219695 (Nature Communications, 2021).
“And” between values parts separate entries of the source, which are not always exact repeats. Equal entries are not always repeated.

Tests used:
hMOR [1] = target: T1, hMOR (Homo sapiens, UniProt P35372); assay: CAMYEL BRET cAMP agonist assay at hMOR; format: cell-based; details: for cAMP %: hMOR, single replicates, source data Fig 6c, listed as C11-Br-7OH (24)
T1 construct: expressed in transfected cells; plasmid a gift from Dr. Nevin Lambert

hMOR [2] = target: T1, hMOR; assay: cell-based
rKOR = target: T2, rKOR (Rattus norvegicus, UniProt P34975); assay: CAMYEL BRET cAMP agonist assay at rKOR; format: cell-based; details: individual replicates, Supplementary Figure 8B source data
T2 construct: expressed in transfected cells

hDOR = hDOR (Homo sapiens, UniProt P41143); assay: CAMYEL BRET cAMP agonist assay at hDOR; format: cell-based; details: for Agonist activity of 7OH analogs at hDOR: single replicate values, Supplementary Figure 7A
mMOR = target: T3, mMOR (Mus musculus, UniProt P42866); assay: CAMYEL BRET antagonism assay at mMOR (inhibition of DAMGO); format: cell-based; details: for Antagonist activity at mMOR, raw signal (single replicate values): source data of Fig 8a and Table 5, listed as C11-Br-7OH (24);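 on Antagonist activity at mMOR, raw signal (single replicate values): BRET signal rises as cAMP falls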
T3 construct: signal peptide (heterologous, not specified) (N); expressed in transfected cells; pcDNA3.1(+) construct made in house
T3 sequence (P42866 whole entry): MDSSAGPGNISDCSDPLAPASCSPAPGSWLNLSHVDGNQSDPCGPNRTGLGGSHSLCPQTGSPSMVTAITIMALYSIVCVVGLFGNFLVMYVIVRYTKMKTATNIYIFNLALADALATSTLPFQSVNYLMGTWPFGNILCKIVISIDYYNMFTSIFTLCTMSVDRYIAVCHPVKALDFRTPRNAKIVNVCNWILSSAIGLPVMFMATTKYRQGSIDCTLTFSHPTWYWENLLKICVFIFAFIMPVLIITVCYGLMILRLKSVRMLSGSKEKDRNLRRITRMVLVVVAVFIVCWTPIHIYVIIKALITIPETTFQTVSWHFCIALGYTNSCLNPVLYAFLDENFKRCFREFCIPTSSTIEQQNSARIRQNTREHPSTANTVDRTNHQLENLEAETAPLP

T2 sequence (P34975 whole entry): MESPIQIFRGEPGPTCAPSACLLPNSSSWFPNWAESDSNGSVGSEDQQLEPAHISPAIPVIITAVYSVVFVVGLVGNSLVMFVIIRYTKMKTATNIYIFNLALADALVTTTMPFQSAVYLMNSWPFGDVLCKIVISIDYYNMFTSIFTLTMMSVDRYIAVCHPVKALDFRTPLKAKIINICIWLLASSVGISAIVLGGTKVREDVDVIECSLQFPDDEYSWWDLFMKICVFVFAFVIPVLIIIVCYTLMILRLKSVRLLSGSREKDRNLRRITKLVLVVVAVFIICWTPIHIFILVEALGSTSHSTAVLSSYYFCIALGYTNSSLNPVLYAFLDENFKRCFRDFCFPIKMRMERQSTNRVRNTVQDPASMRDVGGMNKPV
Sequence of hDOR (P41143 whole entry): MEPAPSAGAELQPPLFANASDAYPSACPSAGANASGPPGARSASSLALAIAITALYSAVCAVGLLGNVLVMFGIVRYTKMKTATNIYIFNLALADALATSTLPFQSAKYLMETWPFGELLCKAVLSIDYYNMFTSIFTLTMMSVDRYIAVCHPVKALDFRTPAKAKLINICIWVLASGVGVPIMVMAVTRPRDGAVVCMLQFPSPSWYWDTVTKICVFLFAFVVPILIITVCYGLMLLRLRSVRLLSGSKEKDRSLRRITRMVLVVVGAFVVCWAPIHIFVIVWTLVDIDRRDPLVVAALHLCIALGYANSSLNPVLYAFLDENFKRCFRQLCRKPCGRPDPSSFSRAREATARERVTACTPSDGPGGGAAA
T1 sequence (P35372 whole entry): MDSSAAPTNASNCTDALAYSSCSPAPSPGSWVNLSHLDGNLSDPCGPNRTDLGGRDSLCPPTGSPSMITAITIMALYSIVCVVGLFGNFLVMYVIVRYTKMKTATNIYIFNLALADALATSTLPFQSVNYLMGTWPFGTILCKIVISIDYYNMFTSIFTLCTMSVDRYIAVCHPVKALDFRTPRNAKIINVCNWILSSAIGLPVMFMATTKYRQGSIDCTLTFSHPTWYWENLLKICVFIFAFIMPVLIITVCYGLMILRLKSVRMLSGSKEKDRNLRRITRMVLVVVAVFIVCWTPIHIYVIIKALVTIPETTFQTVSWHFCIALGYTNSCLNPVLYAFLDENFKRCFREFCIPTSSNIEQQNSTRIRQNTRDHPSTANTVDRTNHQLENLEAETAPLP

For CC[C@@H]1CN2CC[C@@]3(O)C(=Nc4cc(Br)cc(OC)c43)[C@@H]2C[C@@H]1/C(=C\OC)C(=O)OC [11-Br-7OH (24), 11-Br-7OH], the EC50 (hMOR [1]) was 0.401 µM, the Emax (hMOR [1]) was 14% and the cAMP % (hMOR [1]; Log[drug] (M) -5) was 14.6374% and 26.5598% and 13.4593% and 12.3793% and 6.1202% and 3.5813% and 27.8092% and 3.652% and 6.737%. For the same compound, the cAMP % (hMOR [1]; Log[drug] (M) -6) was 18.6989% and 7.716% and 19.1803% and 0.2165% and 6.6608% and -0.2253% and 39.9126% and 18.2077% and 19.9668%, the cAMP % (hMOR [1]; Log[drug] (M) -7) was 12.0186% and 17.6725% and 14.4534% and 3.531% and 0.1326% and -1.3668% and -1.063% and 7.0578% and -1.6001% and the cAMP % (hMOR [1]; Log[drug] (M) -8) was 3.165% and 4.1647% and 7.3741% and 8.619% and 14.9301% and 11.6764% and -5.609% and -5.366% and 10.9759%. The cAMP % (hMOR [1]; Log[drug] (M) -9) was 2.317% and -1.298% and -1.019% and -2.259% and -7.165% and 10.2432% and 25.8292% and 21.9013% and 22.3959%, the cAMP % (hMOR [1]; Log[drug] (M) -10) was 4.34% and -1.394% and 4.504% and 1.432% and 0.8602% and -2.292% and 0.6443% and 11.4211% and 26.9944% and the cAMP % (hMOR [1]; Log[drug] (M) -11) was 6.752% and 9.529% and 9.016% and 11.4512% and -5.469% and 12.8282% and 13.3991% and 6.363% and 12.7423%. The cAMP % (hMOR [1]; Log[drug] (M) -13, cAMP inhibition as % of DAMGO) was 4.239% and 4.052% and 15.2175% and 4.859% and 6.721% and 16.8511% and 4.407% and 8.458% and 8.078%, the IC50 (hMOR [2]) was 1.97 µM and the “Agonist activity of 7OH analogs at rKOR” value (rKOR; Log [drug](M) -5) was 25.6296 and -9.743 and 0.6611 and 8.628 and -4.988 and 6.198 and 4.323 and 3.4884 and 6.258. For the same compound, the “Agonist activity of 7OH analogs at rKOR” value (rKOR; Log [drug](M) -6) was 5.472 and -3.314 and -2.157 and 12.7013 and 24.7501 and 18.1661 and 1.856 and -1.539 and -0.3161, the “Agonist activity of 7OH analogs at rKOR” value (rKOR; Log [drug](M) -7) was 4.7985 and -15.0915 and 10.4804 and 13.2829 and 19.8014 and 0.6752 and 3.169 and 0.0803 and -0.9699 and the “Agonist activity of 7OH analogs at rKOR” value (rKOR; Log [drug](M) -8) was 15.8006 and 9.743 and 5.004 and 1.565 and 3.381 and -4.9468 and 4.551 and 0.2655 and 16.2208. The “Agonist activity of 7OH analogs at rKOR” value (rKOR; Log [drug](M) -9) was 2.391 and 0.4693 and -2.7298 and 8.844 and 10.6443 and -8.128 and 0.4192 and -1.635 and 9.514, the “Agonist activity of 7OH analogs at rKOR” value (rKOR; Log [drug](M) -10) was -3.09 and -6.057 and 13.4494 and 16.7517 and 7.424 and 2.462 and 3.397 and 1.924 and 5.164 and the “Agonist activity of 7OH analogs at rKOR” value (rKOR; Log [drug](M) -11) was -9.158 and 9.8247 and 5.5119 and -1.702 and 25.9779 and 16.6823 and 6.047 and 6.143 and 5.108. The “Agonist activity of 7OH analogs at rKOR” value (rKOR; Log [drug](M) -13) was -5.115 and 8.484 and 8.583 and 29.3433 and 7.52 and 9.7517 and 3.9044 and 5.761 and 8.186, the “Agonist activity of 7OH analogs at hDOR” value (hDOR; Log[drug] (M) -5) was 4.7 and 25.3039 and 6.573 and 24.0158 and 10.0458 and 10.1909 and 12.9945 and 10.3075 and the “Agonist activity of 7OH analogs at hDOR” value (hDOR; Log[drug] (M) -6) was 13.1842 and 10.2252 and 8.595 and 5.73 and 12.7267 and 14.3479 and 6.336 and 13.8749. For the same compound, the “Agonist activity of 7OH analogs at hDOR” value (hDOR; Log[drug] (M) -7) was 14.5317 and -1.155 and 1.334 and 28.0039 and 13.2568 and 5.897 and 5.1203 and 15.4297, the “Agonist activity of 7OH analogs at hDOR” value (hDOR; Log[drug] (M) -8) was 10.6504 and 18.084 and 4.153 and 20.0173 and 1.0999 and 15.8027 and 12.7278 and 11.7823 and 20.1626 and the “Agonist activity of 7OH analogs at hDOR” value (hDOR; Log[drug] (M) -9) was 19.553 and 11.3403 and 28.4089 and 9.179 and -1.427 and -6.158 and 5.452 and 0.7244 and 17.3106. The “Agonist activity of 7OH analogs at hDOR” value (hDOR; Log[drug] (M) -10) was 3.839 and 3.779 and 7.219 and -2.673 and 3.726 and -0.9121 and -0.9075 and -0.119 and 1.027, the “Agonist activity of 7OH analogs at hDOR” value (hDOR; Log[drug] (M) -11) was 6.722 and 21.7822 and 0.8452 and 0.831 and -3.07 and 2.24 and 15.2814 and 3.682 and 0.8607 and the “Agonist activity of 7OH analogs at hDOR” value (hDOR; Log[drug] (M) -13) was -12.8405 and 3.455 and 9.386 and 2.252 and 8.162 and 14.0199 and 6.2368 and 9.608 and 10.0864. The Emax (hDOR; hDOR cAMP BRET, positive control DPDPE) was “very low efficacy”, the IC50 (mMOR) was 0.55 µM and the “Antagonist activity at mMOR, raw signal (single replicate values)” value (from here on “Antagonist activity at mMOR, raw signal”) (mMOR; Log[drug] (M) -5) was 0.01588 and 0.02679 and 0.02408 and 0.03029 and 0.008675 and 0.02853 and 0.02577 and 0.02856 and 0.04207. The “Antagonist activity at mMOR, raw signal” value (mMOR; Log[drug] (M) -6) was 0.07568 and 0.07832 and 0.06492 and 0.08421 and 0.0634 and 0.06872 and 0.08325 and 0.0829 and 0.07977 and the “Antagonist activity at mMOR, raw signal” value (mMOR; Log[drug] (M) -7) was 0.1777 and 0.1753 and 0.1839 and 0.1921 and 0.1726 and 0.1908 and 0.1553 and 0.1528 and 0.1604.
